# Values quoted from earlier work in patent publication US20230157980A1, “METHODS FOR TREATING HEARING LOSS INCIDENT TO COCHLEAR IMPLANT SURGERY” (HOUGH EAR INSTITUTE, priority 2018, published 2023).
# Tested on: hearing loss caused by cochlear implantation
structure (smiles),measurement,setting,value
"CC(=O)N[C@@H](CS)C(=O)O [NAC, N-acetylcysteine]",hearing improvement,"local NAC, 32 kHz, 4-week post insertion time point",barely significant hearing improvement
same,protective effect on hearing,"local NAC, lower frequencies (below 32 kHz)",no protective effect
same,effect on improving hearing,local administration of NAC,only modest and transient effects
